# Data from patent US20250032476A1, “ALPHA-2A ADRENERGIC RECEPTOR MODULATORS AND USES THEREOF” (The Regents of the University of California, priority 2021, published 2025).
# Like-named read-outs stand apart in the source and are kept apart here.
# Columns and labels:
# [1] = target: T1, ALPHA-2A ADRENERGIC RECEPTOR (Homo sapiens (Human), UniProt P08913); assay: Gi recruitment (G protein); format: cell-based; conditions: for functional classification (agonist / weak agonist): Table 6, result in words; for Emax: read-out: G protein Emax (%)
# T1 sequence (P08913 whole entry): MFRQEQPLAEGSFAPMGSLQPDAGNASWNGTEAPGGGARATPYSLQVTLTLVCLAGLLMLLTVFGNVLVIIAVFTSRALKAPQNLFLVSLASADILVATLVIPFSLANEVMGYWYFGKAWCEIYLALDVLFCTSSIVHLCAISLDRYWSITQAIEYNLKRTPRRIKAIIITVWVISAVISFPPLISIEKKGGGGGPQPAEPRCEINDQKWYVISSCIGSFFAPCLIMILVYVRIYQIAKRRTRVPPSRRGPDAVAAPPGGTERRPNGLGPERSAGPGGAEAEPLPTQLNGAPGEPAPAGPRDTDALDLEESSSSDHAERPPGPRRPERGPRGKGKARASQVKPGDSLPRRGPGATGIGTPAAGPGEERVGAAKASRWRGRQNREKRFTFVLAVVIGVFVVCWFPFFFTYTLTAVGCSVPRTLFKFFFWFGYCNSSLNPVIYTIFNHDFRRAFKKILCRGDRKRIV
# [2] = target: T1, ALPHA-2A ADRENERGIC RECEPTOR; assay: Arrestin recruitment; format: cell-based; conditions: Tables 7-9
# human α2AAR = human α2AAR (Homo sapiens (Human), UniProt P08913); assay: Gαi G protein activation, BRET biosensor assay in HEK293T cells; conditions: HEK-293T, read-out: Gαi Emax
# Sequence of human α2AAR (P08913 whole entry): as above
# Method: Bioluminescense resonance energy transfer. G protein mediated activation of human α2AAR and D2long was monitored with Gαi1-RLucII (71, 72) together with Gβ1 and Gγ1-GFP10. Arrestin recruitment was performed by enhanced bystander BRET using CAAX-rGFP and β-arrestin-2-RLucII as biosensors (all biosensors are provided from M. Bouvier, Université de Montréal, Canada) (71, 73) in the presence of GRK2 as described (66, 74). In brief, HEK293T cells were transfected with a total amount of 3.3 μg DNA per 10^6 cells using linear polyethyleneimine (PEI, Polysciences, 3:1 PEI:DNA ratio) and transferred into 96-well half-area plates (Greiner, Frickenhausen, Germany) at a density of 10,000 cells per well and incubated for 48 hrs. Medium was exchanged with PBS (Hank's balanced salt solution) and cells were stimulated with ligands at 37° C. for 10 min for Gαi stimulation or arrestin recruitment, respectively.
# [3] = Gi recruitment, Table 6, read-out: EC50
# [4] = Gi recruitment, Tables 7-9, read-out: G protein EC50
compound,measurement,setting,value
CN1CCc2c(Nc3ccncc3)cccc2C1=O [PS77],functional classification (agonist / weak agonist),[1]; Gi recruitment,agonist
same,EC50,[1]; [3],1200 nM
"4-(1,2,5,6-tetrahydropyridin-3-yl)-1H-indole [PS-NN04]",Arrestin Emax (%),[2],<10%
same,G protein Emax (%),"[1]; Gi recruitment, Tables 7-9",63%
same,EC50,[1]; [4],130 nM
"COc1cc2[nH]ncc2cc1-c1ccc(N)nc1 [TP79, 5-(6-Methoxy-1H-indazol-5-yl)pyridin-2-amine]",Emax,[2],< 10%
same,Emax,"[1]; Gi recruitment, Tables 7-9",< 6%
"Cc1cc(Nc2ccncc2)c2ccccc2n1 [Compound 9506, 2-methyl-N-(pyridin-4-yl)quinolin-4-amine]",functional classification (agonist / weak agonist),[1]; Gi recruitment,weak agonist
same,EC50,[1]; [3],950 nM
"Nc1ccc(Nc2ccccn2)cc1Cl [Compound 7502, 3-Chloro-N^1-(pyridin-2-yl)benzene-1,4-diamine]",EC50,[1]; [4],460 nM
CN1C(=O)CCc2c(Nc3ccncc3)cccc21 [PS78],functional classification (agonist / weak agonist),[1]; Gi recruitment,agonist
same,EC50,[1]; [3],43 nM
N#Cc1ccc(C2=CCCNC2)c2cccnc12 [PS-NN05],Emax,[2],< 10%
same,Emax,"[1]; Gi recruitment, Tables 7-9",< 5%
"Nc1ccc(-c2cc(Cl)c3[nH]ncc3c2)cn1 [TP73, 5-(7-Chloro-1H-indazol-5-yl)pyridin-2-amine]",Emax,[2],< 10%
same,EC50,[1]; [4],8700 nM
same,Emax,"[1]; Gi recruitment, Tables 7-9",27%
"Nc1ccnc(Cc2ccc(F)cc2)c1 [TP94, 2-(4-Fluorobenzyl)pyridin-4-amine]",Emax,[2],< 10%
same,EC50,[1]; [4],5000 nM
same,Emax,"[1]; Gi recruitment, Tables 7-9",19%
"CC1=CCc2cc(C3=CCCNC3)ccc21 [TP97, 5-(3-Methyl-1H-inden-6-yl)-1,2,3,6-tetrahydropyridine]",Emax,[2],< 5%
same,Emax,"[1]; Gi recruitment, Tables 7-9",< 10%
"Cc1cc(-c2ccc3[nH]ncc3c2C)cnc1N [Compound 5649, 3-Methyl-5-(4-methyl-1H-indazol-5-yl)pyridin-2-amine]",EC50,[1]; [4],1000 nM
"CN(c1cccc(O)c1)c1cc(N)ccn1 [Compound 9448, 3-((4-Aminopyridin-2-yl)(methyl)amino)phenol]",EC50,[1]; [4],2900 nM
"Nc1ccc(-c2cc(C(F)(F)F)c3[nH]ncc3c2)cn1 [TP87, 5-(7-(Trifluoromethyl)-1H-indazol-5-yl)pyridin-2-amine]",Emax,[2],< 10%
same,G protein effect at 100 μM,[1],27% at 100 μM
C1=C(c2cccc3ncncc23)CNCC1 [PS-NN06],Emax,[2],< 10%
same,Emax,"[1]; Gi recruitment, Tables 7-9",< 10%
NC1CCc2ccc(C3=CCCNC3)cc21 (centres unmarked) [TP92],Emax,[2],< 5%
same,G protein effect at 100 μM,[1],18% at 100 μM
"Cc1cccc(N(C)c2ccc(N)nc2)c1 [Compound 9878, N^5-methyl-N^5-(m-tolyl)pyridine-2,5-diamine]",EC50,[1]; [4],1100 nM
"CN(c1cccc(Cl)c1)c1cc(N)ccn1 [Compound 2029, N^2-(3-Chlorophenyl)-N^2-methylpyridine-2,4-diamine]",EC50,[1]; [4],1400 nM
"CN(c1ccc(N)c(F)c1)c1ccccn1 [Compound 6254, 3-Fluoro-N^1-methyl-N^1-(pyridin-2-yl)benzene-1,4-diamine]",EC50,[1]; [4],5400 nM
Oc1ccc2c(Nc3ccncc3)cccc2c1 [PS85],functional classification (agonist / weak agonist),[1]; Gi recruitment,agonist
same,EC50,[1]; [3],87 nM
"NC[C@H](O)c1ccc(O)c(O)c1 [NorEpi, norepinephrine, reference compound]",Emax,human α2AAR,100%
Cc1cc2c(Nc3ccncc3)cccc2cn1 [PS74],functional classification (agonist / weak agonist),[1]; Gi recruitment,agonist
same,EC50,[1]; [3],450 nM
"4-Methyl-5-(1,2,5,6-tetrahydropyridin-3-yl)-1H-pyrrolo[2,3-b]pyridine [Compound 9661]",EC50,[1]; [4],680 nM
Fc1ccc2cncc(Nc3ccncc3)c2c1 [PS76],functional classification (agonist / weak agonist),[1]; Gi recruitment,agonist
same,EC50,[1]; [3],89 nM
